Experiments:
[1] = biological target: Calcium/calmodulin-dependent protein kinase type II subunit alpha (Homo sapiens, UniProt Q9UQM7); assay: Selectivity interaction (Upstate Kinase Profiler service (Millipore)) EUB0000056c CAMK2A; conditions: at 1 µM
[2] = biological target: Cyclin-dependent kinase-like 1 (Homo sapiens) (UniProt Q00532); assay: Selectivity interaction (KinomeScan (DiscoverX)) EUB0000655a CDKL1; conditions: at 10 µM
[3] = biological target: Mitogen-activated protein kinase kinase kinase kinase 1 (Homo sapiens) (UniProt Q92918); assay: Selectivity interaction (Kinase panel (KiNativ target engagement assay in Jurkat cells)) EUB0001635a MAP4K1; assay type: cell-based; conditions: Selectivity number of off-targets 0.0, Selectivity number of targets 233.0, Source Knowledge https://www.sciencedirect.com/science/article/pii/S2451945619300674?via%3Dihub, at 1 µM
Mitogen-activated protein kinase kinase kinase kinase 1 (Homo sapiens), sequence (Q92918 whole entry, looked up): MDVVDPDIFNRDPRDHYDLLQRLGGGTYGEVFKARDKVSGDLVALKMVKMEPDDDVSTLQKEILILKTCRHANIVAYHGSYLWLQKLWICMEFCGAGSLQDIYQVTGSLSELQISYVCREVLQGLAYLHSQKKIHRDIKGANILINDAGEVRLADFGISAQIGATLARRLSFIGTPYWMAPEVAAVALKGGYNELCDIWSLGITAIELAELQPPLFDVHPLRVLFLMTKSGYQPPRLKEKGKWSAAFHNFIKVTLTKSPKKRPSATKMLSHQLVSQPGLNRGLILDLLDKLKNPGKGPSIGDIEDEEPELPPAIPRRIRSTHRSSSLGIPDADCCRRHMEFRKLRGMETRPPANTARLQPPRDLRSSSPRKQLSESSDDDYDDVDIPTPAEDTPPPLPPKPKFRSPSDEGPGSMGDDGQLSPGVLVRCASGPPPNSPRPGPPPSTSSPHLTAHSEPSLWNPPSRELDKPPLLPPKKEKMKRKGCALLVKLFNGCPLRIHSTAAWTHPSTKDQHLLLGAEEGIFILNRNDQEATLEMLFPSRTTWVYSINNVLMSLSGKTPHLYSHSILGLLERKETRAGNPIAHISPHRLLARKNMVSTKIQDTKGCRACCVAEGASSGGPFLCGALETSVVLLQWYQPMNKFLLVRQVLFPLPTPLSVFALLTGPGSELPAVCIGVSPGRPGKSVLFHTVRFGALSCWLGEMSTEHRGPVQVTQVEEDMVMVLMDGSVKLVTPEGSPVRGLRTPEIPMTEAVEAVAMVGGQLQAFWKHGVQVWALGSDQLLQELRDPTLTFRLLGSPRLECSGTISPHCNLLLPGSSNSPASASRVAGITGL

[4] = biological target: Protein kinase C theta type (Homo sapiens, UniProt Q04759); assay: Selectivity interaction (KinomeScan (DiscoverX)) EUB0000666a PRKCQ; conditions: at 10 µM
Protein kinase C theta type, sequence (Q04759 whole entry, looked up): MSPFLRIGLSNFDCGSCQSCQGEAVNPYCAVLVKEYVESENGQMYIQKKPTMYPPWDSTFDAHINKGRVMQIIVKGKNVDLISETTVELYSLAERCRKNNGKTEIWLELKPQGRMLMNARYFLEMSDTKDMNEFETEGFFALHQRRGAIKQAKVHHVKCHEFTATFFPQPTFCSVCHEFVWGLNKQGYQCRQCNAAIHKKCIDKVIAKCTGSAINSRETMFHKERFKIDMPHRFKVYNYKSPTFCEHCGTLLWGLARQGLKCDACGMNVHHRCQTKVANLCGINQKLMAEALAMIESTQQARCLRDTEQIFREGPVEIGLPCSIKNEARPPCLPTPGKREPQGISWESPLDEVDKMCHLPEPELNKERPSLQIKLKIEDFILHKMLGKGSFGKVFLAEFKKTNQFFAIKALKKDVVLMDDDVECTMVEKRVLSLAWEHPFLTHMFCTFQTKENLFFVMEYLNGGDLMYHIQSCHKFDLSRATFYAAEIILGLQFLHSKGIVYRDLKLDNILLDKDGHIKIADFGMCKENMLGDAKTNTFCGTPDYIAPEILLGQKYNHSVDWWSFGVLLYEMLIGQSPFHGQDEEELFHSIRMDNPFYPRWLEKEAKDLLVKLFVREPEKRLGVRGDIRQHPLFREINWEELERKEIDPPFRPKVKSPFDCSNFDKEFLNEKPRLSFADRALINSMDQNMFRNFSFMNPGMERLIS

[5] = biological target: T1, Rhodopsin kinase GRK1 (Homo sapiens) (UniProt Q15835); conditions: at 10 µM
T1 sequence (whole entry): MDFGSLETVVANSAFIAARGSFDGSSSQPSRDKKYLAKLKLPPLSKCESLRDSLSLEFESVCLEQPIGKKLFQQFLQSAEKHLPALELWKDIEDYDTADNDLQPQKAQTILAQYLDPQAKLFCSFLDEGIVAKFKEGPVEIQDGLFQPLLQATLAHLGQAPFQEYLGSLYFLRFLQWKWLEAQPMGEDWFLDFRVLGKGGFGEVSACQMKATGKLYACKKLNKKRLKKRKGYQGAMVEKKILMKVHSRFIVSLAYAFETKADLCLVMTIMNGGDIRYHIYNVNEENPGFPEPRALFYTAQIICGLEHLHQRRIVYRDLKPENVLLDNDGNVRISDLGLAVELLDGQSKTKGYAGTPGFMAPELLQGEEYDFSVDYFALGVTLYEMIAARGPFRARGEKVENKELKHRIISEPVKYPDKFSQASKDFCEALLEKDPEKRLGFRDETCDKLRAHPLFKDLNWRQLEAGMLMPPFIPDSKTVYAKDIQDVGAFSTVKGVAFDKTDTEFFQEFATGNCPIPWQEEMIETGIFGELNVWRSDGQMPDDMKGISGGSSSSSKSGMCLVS

[6] = biological target: Mitogen-activated protein kinase 1 (Homo sapiens, UniProt P28482)
Mitogen-activated protein kinase 1, sequence (P28482 whole entry): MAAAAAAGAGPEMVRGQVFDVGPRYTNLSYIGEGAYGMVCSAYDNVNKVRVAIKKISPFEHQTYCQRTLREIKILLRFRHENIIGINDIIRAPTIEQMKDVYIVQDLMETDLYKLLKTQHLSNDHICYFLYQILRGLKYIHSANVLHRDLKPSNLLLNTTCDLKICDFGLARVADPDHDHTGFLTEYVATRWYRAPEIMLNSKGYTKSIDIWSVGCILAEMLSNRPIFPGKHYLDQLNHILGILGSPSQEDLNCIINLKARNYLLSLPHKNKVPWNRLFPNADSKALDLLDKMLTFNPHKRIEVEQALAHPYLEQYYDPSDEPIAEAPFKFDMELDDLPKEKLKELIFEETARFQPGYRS

[7] = biological target: Serine/threonine-protein kinase 24 (Homo sapiens) (UniProt Q9Y6E0); assay: Selectivity interaction (ActivX KiNativ screen (kinase selectivity in THP-1 cell lysates)) EUB0000639a STK24; assay type: subcellular; conditions: lysate
Serine/threonine-protein kinase 24 (Homo sapiens), sequence (Q9Y6E0 whole entry, looked up): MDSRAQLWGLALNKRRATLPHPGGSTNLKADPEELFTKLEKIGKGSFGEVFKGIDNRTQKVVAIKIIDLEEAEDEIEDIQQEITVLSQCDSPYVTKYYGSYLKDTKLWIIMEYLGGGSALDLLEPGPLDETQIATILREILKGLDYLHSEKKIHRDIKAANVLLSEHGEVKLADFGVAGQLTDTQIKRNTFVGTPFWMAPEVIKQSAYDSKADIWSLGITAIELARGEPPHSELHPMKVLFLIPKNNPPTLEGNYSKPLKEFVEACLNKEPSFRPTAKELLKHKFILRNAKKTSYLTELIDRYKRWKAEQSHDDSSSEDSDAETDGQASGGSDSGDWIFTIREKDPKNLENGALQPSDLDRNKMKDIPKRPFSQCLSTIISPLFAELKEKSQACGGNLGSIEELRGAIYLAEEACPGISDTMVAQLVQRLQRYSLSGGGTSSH

[8] = biological target: T2, Muscle, skeletal receptor tyrosine-protein kinase (Homo sapiens) (UniProt O15146); assay: Selectivity interaction (KinomeScan (DiscoverX)) EUB0000618a MUSK; conditions: at 10 µM
T2 sequence (whole entry): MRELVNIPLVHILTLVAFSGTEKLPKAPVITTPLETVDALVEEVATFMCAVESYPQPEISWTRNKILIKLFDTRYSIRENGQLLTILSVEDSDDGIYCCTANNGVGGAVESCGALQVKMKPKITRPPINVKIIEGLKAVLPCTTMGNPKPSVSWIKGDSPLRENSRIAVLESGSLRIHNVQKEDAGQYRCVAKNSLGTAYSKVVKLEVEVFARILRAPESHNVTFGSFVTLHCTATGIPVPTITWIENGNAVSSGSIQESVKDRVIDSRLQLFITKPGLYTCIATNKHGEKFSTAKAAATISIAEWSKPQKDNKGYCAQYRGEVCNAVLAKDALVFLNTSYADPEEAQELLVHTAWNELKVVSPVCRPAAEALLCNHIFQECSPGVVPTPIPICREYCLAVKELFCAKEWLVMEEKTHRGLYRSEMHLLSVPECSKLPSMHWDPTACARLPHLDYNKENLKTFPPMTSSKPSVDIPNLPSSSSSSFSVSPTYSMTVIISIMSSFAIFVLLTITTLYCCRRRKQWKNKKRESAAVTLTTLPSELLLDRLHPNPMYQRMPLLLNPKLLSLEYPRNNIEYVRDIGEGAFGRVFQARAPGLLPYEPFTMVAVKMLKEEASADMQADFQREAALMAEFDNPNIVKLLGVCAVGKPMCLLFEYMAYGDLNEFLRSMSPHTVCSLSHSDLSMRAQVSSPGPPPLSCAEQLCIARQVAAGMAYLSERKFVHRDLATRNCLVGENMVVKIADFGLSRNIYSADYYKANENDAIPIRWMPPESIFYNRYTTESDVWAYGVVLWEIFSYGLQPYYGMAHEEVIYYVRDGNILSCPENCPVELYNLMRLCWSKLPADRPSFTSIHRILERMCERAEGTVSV

[9] = biological target: T3, Serine/threonine-protein kinase Sgk3 (Homo sapiens) (UniProt Q96BR1); assay: Selectivity interaction (KinomeScan (DiscoverX)) EUB0001619a SGK3; conditions: at 1 µM
T3 sequence (whole entry): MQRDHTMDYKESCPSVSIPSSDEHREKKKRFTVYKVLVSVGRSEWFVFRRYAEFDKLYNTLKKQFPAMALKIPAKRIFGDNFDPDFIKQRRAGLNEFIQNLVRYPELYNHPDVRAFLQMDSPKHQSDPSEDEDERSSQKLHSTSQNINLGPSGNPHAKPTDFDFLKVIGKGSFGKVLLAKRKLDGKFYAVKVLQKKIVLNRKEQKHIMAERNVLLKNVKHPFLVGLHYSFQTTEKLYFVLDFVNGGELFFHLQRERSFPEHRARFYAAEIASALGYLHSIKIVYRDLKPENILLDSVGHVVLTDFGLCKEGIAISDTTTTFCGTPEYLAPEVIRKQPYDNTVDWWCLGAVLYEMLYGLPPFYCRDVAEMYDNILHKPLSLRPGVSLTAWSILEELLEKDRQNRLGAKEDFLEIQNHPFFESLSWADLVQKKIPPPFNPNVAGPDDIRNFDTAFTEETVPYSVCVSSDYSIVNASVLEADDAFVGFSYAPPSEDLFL

Calcium/calmodulin-dependent protein kinase type II subunit alpha, sequence (Q9UQM7 whole entry): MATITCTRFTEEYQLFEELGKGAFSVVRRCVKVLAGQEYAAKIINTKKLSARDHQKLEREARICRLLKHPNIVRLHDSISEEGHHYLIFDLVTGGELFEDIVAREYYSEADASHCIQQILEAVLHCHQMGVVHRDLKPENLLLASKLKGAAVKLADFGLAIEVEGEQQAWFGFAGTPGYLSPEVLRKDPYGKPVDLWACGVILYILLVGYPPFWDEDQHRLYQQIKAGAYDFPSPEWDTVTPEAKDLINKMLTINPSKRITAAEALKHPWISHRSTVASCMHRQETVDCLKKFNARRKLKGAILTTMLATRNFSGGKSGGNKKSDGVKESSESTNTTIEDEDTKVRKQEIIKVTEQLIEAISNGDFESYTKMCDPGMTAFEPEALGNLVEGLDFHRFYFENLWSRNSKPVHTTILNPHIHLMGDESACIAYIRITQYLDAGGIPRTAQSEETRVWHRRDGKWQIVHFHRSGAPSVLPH
Cyclin-dependent kinase-like 1 (Homo sapiens), sequence (Q00532 whole entry): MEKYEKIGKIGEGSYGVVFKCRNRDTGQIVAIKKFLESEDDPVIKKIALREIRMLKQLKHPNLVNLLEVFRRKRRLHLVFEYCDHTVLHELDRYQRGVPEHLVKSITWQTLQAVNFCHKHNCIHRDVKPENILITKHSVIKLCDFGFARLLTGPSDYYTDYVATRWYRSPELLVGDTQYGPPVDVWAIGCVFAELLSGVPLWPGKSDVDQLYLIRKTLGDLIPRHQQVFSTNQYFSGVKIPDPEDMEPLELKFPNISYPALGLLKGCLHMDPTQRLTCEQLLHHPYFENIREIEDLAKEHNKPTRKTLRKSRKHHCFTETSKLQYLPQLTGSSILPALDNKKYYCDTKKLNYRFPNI

`Cc1ccc(-c2ccc3c(ccc4sc5c(c43)NC[C@@H](C)NC5=O)n2)cn1` was tested, and the % of inhibition [1] was 87%.
With `CN(C)CCOc1ccc(-c2nc(-c3ccncc3)c(-c3ccc4c(c3)CC/C4=N\O)[nH]2)cc1` the % of control [2] was 100%.
Work on `C=CC(=O)Nc1ccc(C(=O)Nc2[nH]nc3c2CN(C(=O)N[C@H](CN(C)C)c2ccccc2)C3(C)C)cc1` yielded a % of engagement [3] of 4.4%.
Work on `O=C(NOC[C@H](O)CO)c1ccc(F)c(F)c1Nc1ccc(I)cc1F` yielded a % of control [4] of 100%.
Work on `Cc1cc([C@@H](C)Nc2ccccc2C(=O)O)c2nc(N3CCOCC3)cc(=O)n2c1` [AZD-6482] yielded a % of control [5] of 100%.
`CCc1cccc(CC)c1NC(=O)c1nn(C)c2c1CCc1cnc(Nc3ccc(C(=O)NC4CCN(C)CC4)cc3OC(F)(F)F)nc1-2` showed an IC50 [6] of over 10 µM.
Work on `CC[C@@H]1[C@H](F)C(=O)N[C@@H]1COc1nccc2cc(C(N)=O)c(OC)cc12` [ZIMLOVISERTIB] yielded a % of inhibition ([7]; at 0.01 µM) of 3.4%, a % of inhibition ([7]; at 0.04 µM) of -19.7% and a % of inhibition ([7]; at 0.2 µM) of -5.9%. The % of inhibition ([7]; at 1 µM) was 6% and the % of inhibition ([7]; at 5 µM) was 5.4%.
With `O[C@H]1CC[C@H](Nc2ncc3nc(Nc4c(F)cc(F)cc4F)n([C@H]4CCOC4)c3n2)CC1` the % of control [8] was 63%.
With `N#Cc1cccc(-c2c[nH]c3ncnc(N4CCOCC4)c23)c1` the % of control [9] was 100%.

Source: ChEMBL document CHEMBL5465560, “Selectivity Literature for EUbOPEN Chemogenomic Library” (2024)
